Data taken from patent US20140057978A1, “NOVEL USE OF BENZOFURANYLSULFONATES” (priority 2011, published 2014).

Tests used:
[1] = test system: embryonic DRG (Dorsal Root Ganglion) explants; assay: Axonal growth in embryonic DRG explants; type: cell-based, rat; details: 22 hours in vitro
Method: (§1) In vitro experiments with a benzofuranylsulfonate to improve axonal growth and Schwann cell expansion in embryonic DRG (Dorsal Root Ganglion) explants of rats.
(§2) Outgrowth studies with Methanesulfonic acid 2-(2,4-dichloro-benzoyl)-3-ureido-benzofuran-6-yl ester or the vehicle were performed on embryonic neural tissue. DRGs of thoracic, lumbar, and sacral levels were prepared from Wistar rat embryos E18-20 and processed in ice cold 0.6% glucose in PBS. Harvested DRGs were freed from attaching nerve fibres, dissected, and transferred onto PDL- and laminin-coated glass coverlips. To avoid cluster formation, a maximum of two DRG explants were transferred onto a single glass coverslip. Following an initial attachment phase, the pre-incubation medium was replaced by fully supplemented growth medium spiked with the test item (Methanesulfonic acid 2-(2,4-dichloro-benzoyl)-3-ureido-benzofuran-6-yl ester groups 2 and 3) or vehicle (DMF, group 1) and incubated at 37° C./10% CO2 for additional 22 hours in vitro. Following 22 hours in vitro, the DRG explants were fluorescently labelled and axonal growth and Schwann cell expansion were quantitatively assessed.
(§3) Group 1: Fully supplemented growth medium with 0.1% vehicle. Group 2: Fully supplemented growth medium with 0.1% vehicle and Methanesulfonic acid 2-(2,4-dichloro-benzoyl)-3-ureido-benzofuran-6-yl ester at a final concentration of 0.1 μM. Group 3: Fully supplemented growth medium with 0.1% vehicle and Methanesulfonic acid 2-(2,4-dichloro-benzoyl)-3-ureido-benzofuran-6-yl ester at a final concentration of 1 μM.
Morphometric data are presented as the mean values and standard deviations of the axonal growth area in μm^2.

[2] = test system: severe contusive SCI in Lewis rats; assay: BBB open field locomotor rating scale after severe spinal cord contusion injury; type: in vivo; details: rat, oral
Method: Oral treatment with a benzofuranylsulfonate after severe spinal cord contusion injury in the rat.
Thirteen week-old female Lewis rats (Charles River, Sulzfeld Germany) were housed under a 12:12 h dark/light regime and allowed free access to water and food. After one week of habituation the animals underwent general anesthesia with a mixture of isoflurane and air (induction: 5% isoflurane, maintenance: 2.2% isofluorane). A Th10 laminectomy was performed without rupturing the dura and a severe contusive SCI (25 gcm NYU/MASCIS II impactor) (Gruner, 1992) was induced. After suturing muscle and skin, a subcutaneous (s.c.) injection of 5 ml of Ringers Lactate was given. Bladders were emptied manually 2 times a day until spontaneous voiding returned (usually within 1 week). The lesion severity was verified by the impact velocity and contusion depth of the impactor rod. Animals with an impact velocity error >5% were excluded from further analysis. After injury, individual rats were randomly assigned into a treatment group. The following groups were used: […]
The BBB open field locomotor rating scale: The BBB locomotor rating scale was used to assess general locomotor performance (Basso et al., 1995). The score was assessed before injury and at 1, 3, 5, 7, 14, 21, 35, 42, 49, 56 and 63 days post operation (dpo) by 2 blinded observers.

[3] = test system: Schwann cells of embryonic DRG explants; assay: Schwann cell expansion in embryonic DRG explants; type: cell-based, rat; details: for Schwann cell expansion (numbers of Schwann cells outside the DRG explant core): 22 hours in vitro, versus vehicle
Method: as §1, §2, §3
Data are presented as the mean values and standard deviations of the numbers of Schwann cells outside the DRG explant core.

SMILES: CS(=O)(=O)Oc1ccc2c(NC(N)=O)c(C(=O)c3ccc(Cl)cc3Cl)oc2c1 [methanesulfonic acid 2-(2,4-dichloro-benzoyl)-3-ureido-benzofuran-6-yl ester]
- growth area of outgrowing axons, as compared to vehicle-treated cultures ([1]; 0.1 μM): significant increase
- growth area of outgrowing axons, as compared to vehicle-treated cultures ([1]; 1 μM): significant increase
- elevation of axonal growth areas (fold) ([1]; 1 μM, versus vehicle): nearly five fold
- BBB score at steady state ([2]; 10 mg in vehicle, vehicle animals 7.8): 8.8
- BBB performance compared to vehicle controls at the end of the experiment ([2]; 10 mg, DPO 56, Students T-Test p=0.01): significantly better
- Schwann cell expansion (numbers of Schwann cells outside the DRG explant core) ([3]; 0.1 μM): significant increase
- Schwann cell expansion (numbers of Schwann cells outside the DRG explant core) ([3]; 1 μM): significant increase
- increase of Schwann cell numbers (fold) ([3]; treated cultures versus vehicle-treated cultures, highest at 0.1 μM): nearly fivefold
